Experimental data from patent US10174016B2 (BAYER AKTIENGESELLSCHAFT, priority 2014, dated 2019).
Read-outs that look alike come from different tables or passages of the source.

What was measured:
human P2X3 receptor = human P2X3 receptor (Homo sapiens (Human), UniProt P56373); experiment: Intracellular calcium measurement (FLIPR, Fluo-4) of antagonist activity at human P2X3 receptors; assay type: cell-based; settings: read-out: hP2X3 IC50
Summary of the method: (§1)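 Antagonism quantified from peak calcium fluorescence (Fluo-4, FLIPR, 90 sec read) evoked by EC80 α,β-Me-ATP, after a 30 min, 37° C. compound pretreatment in 1% DMSO. Human P2X3- or P2X2/3-expressing cells used; triplicate means fitted for IC50, percent maximal inhibition and Hill coefficient.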

human P2X2/3 receptor = human P2X2/3 receptor (Homo sapiens (Human), UniProt P56373+Q9UBL9); experiment: Intracellular calcium measurement (FLIPR, Fluo-4) of antagonist activity at human P2X2/3 receptors; assay type: cell-based; settings: human P2X2/3, FLIPR calcium assay, agonist α,β-Me-ATP; read-out: hP2X2/3 IC50
Summary of the method: as §1

[1] = human P2X3, FLIPR calcium assay, agonist α,β-Me-ATP

human P2X2/3 receptor, sequence (P56373 whole entry): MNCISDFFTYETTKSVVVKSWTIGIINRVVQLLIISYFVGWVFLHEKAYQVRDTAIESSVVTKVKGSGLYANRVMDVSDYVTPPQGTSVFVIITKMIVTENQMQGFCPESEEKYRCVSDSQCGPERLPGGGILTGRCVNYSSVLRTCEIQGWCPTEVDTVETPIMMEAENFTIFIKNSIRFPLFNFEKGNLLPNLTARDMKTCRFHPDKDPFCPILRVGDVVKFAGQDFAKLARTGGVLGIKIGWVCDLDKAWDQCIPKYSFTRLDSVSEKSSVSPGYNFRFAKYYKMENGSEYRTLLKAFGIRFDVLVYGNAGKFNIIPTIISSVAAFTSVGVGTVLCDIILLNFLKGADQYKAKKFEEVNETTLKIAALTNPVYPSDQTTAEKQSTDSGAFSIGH
human P2X2/3 receptor, sequence (Q9UBL9 whole entry): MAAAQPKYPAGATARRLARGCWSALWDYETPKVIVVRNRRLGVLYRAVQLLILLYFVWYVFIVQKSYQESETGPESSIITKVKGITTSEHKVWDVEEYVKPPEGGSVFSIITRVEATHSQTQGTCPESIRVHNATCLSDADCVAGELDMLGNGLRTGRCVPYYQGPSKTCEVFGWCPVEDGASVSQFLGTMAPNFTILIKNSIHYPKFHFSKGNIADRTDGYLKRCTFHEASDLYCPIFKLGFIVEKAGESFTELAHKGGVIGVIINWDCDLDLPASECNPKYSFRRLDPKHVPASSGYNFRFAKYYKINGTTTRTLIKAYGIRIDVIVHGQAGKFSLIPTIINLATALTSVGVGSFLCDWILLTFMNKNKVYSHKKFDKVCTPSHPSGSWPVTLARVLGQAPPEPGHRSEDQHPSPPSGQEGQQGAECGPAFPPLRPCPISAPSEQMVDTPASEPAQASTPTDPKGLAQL
human P2X3 receptor, sequence (P56373 whole entry): as the sequence (P56373 whole entry) above

| Compound | IC50 (human P2X3 receptor; [1]) [nM] | IC50 (human P2X2/3 receptor) [nM] | IC50 (human P2X3 receptor) [nM] |
| --- | --- | --- | --- |
| Cc1ccc([C@@H](C)NC(=O)c2cc(OC3CCOCC3)cc(-c3ncc(Cl)s3)c2)nn1 [Example 325, 3-(5-chloro-1,3-thiazol-2-yl)-N-[(1R)-1-(6-methylpyridazin-3-yl)ethyl]-5-(tetrahydro-2H-pyran-4-yloxy)benzamide] | 26 | 235 |  |
| C[C@@H](NC(=O)c1cc(OC2CCOCC2)cc(-c2ncc(Cl)s2)c1)c1ccc(C(F)(F)F)nn1 [Example 326, 3-(5-chloro-1,3-thiazol-2-yl)-5-(tetrahydro-2H-pyran-4-yloxy)-N-{(1R)-1-[6-(trifluoromethyl)pyridazin-3-yl]ethyl}benzamide] | 21 | 378 |  |
| Cc1cnc(-c2cc(OCC3(C)COC3)cc(C(=O)N[C@H](C)c3cnc(C(F)(F)F)nc3)c2)s1 [Example 327, 3-[(3-methyloxetan-3-yl)methoxy]-5-(5-methyl-1,3-thiazol-2-yl)-N-{(1R)-1-[2-(trifluoromethyl)pyrimidin-5-yl]ethyl}benzamide] | 10 | 239 |  |
| Cc1cnc(-c2cc(OCC(C)(C)O)cc(C(=O)N[C@H](C)c3cnc(C(F)(F)F)nc3)c2)s1 [Example 328, 3-(2-hydroxy-2-methylpropoxy)-5-(5-methyl-1,3-thiazol-2-yl)-N-{(1R)-1-[2-(trifluoromethyl)pyrimidin-5-yl]ethyl}benzamide] |  | 274 | 12 |
| Cc1cnc(-c2cc(OC3C4COCC3CN(C(C)C)C4)cc(C(=O)N[C@H](C)c3cnc(C(F)(F)F)nc3)c2)s1 (stereo partly drawn) [Example 344, 3-[(7-isopropyl-3-oxa-7-azabicyclo[3.3.1]non-9-yl)oxy]-5-(5-methyl-1,3-thiazol-2-yl)-N-{(1R)-1-[2-(trifluoromethyl)pyrimidin-5-yl]ethyl}benzamide] | 34 | 987 |  |
| COC(=O)N1CC2COCC(C1)C2Oc1cc(C(=O)N[C@H](C)c2cnc(C(F)(F)F)nc2)cc(-c2ncc(C)s2)c1 (stereo partly drawn) [Example 345, methyl 9-[3-(5-methyl-1,3-thiazol-2-yl)-5-({(1R)-1-[2-(trifluoromethyl)pyrimidin-5-yl]ethyl}carbamoyl)phenoxy]-3-oxa-7-azabicycle[3.3.1]nonane-7-carboxylate] | 7 | 99 |  |
| Cc1cnc(-c2cc(OC[C@H]3CNCCO3)cc(C(=O)N[C@H](C)c3cnc(C(F)(F)F)nc3)c2)s1 [Example 347, 3-(5-Methyl-1,3-thiazol-2-yl)-5-[(2R)-morpholin-2-ylmethoxy]-N-{(1R)-1-[2-(trifluoromethyl)pyrimidin-5-yl]ethyl}benzamide] | 9 | 1520 |  |
| Cc1cnc(-c2cc(OC[C@@H]3CNCCO3)cc(C(=O)N[C@H](C)c3cnc(C(F)(F)F)nc3)c2)s1 [Example 350, 3-(5-Methyl-1,3-thiazol-2-yl)-5-[(2S)-morpholin-2-ylmethoxy]-N-{(1R)-1-[2-(trifluoromethyl)pyrimidin-5-yl]ethyl}benzamide] | 14 | 1160 |  |
| Cc1cnc(-c2cc(OC[C@@H]3CN(C)CCO3)cc(C(=O)N[C@H](C)c3cnc(C(F)(F)F)nc3)c2)s1 [Example 351, 3-{[(2S)-4-methylmorpholin-2-yl]methoxy}-5-(5-methyl-1,3-thiazol-2-yl)-N-{(1R)-1-[2-(trifluoromethyl)pyrimidin-5-yl]ethyl}benzamide] | 16 | 690 |  |
| Cc1cnc(-c2cc(OCC3CNCCO3)cc(C(=O)N[C@H](C)c3cnc(C(F)(F)F)nc3)c2)s1 (stereo partly drawn) [Example 352, 3-(5-Methyl-1,3-thiazol-2-yl)-5-[morpholin-2-ylmethoxy]-N-{(1R)-1-[2-(trifluoromethyl)pyrimidin-5-yl]ethyl}benzamide] | 18 | 1140 |  |
| Cc1cnc(-c2cc(OCC3CN(C)CCO3)cc(C(=O)N[C@H](C)c3cnc(C(F)(F)F)nc3)c2)s1 (stereo partly drawn) [Example 353, 3-{[4-methylmorpholin-2-yl]methoxy}-5-(5-methyl-1,3-thiazol-2-yl)-N-{(1R)-1-[2-(trifluoromethyl)pyrimidin-5-yl]ethyl}benzamide] | 7 | 427 |  |
| Cc1cnc(-c2cc(OC[C@@]3(F)CCCNC3)cc(C(=O)N[C@H](C)c3cnc(C(F)(F)F)nc3)c2)s1 [Example 354] | 25 | 1030 |  |
| Cc1cnc(-c2cc(OCC3(F)CNC3)cc(C(=O)N[C@H](C)c3cnc(C(F)(F)F)nc3)c2)s1 [Example 358, 3-[(3-fluoroazetidin-3-yl)methoxy]-5-(5-methyl-1,3-thiazol-2-yl)-N-{(1R)-1-[2-(trifluoromethyl)pyrimidin-5-yl]ethyl}benzamide] | 57 | 1440 |  |
| Cc1cnc(-c2cc(OCC3CNCCC3(F)F)cc(C(=O)N[C@H](C)c3cnc(C(F)(F)F)nc3)c2)s1 (stereo partly drawn) [Example 359, 3-{[4,4-difluoropiperidin-3-yl]methoxy}-5-(5-methyl-1,3-thiazol-2-yl)-N-{(1R)-1-[2-(trifluoromethyl)pyrimidin-5-yl]ethyl}benzamide] | 6 | 200 |  |
| Cc1cnc(-c2cc(OC[C@H]3COCCN3C)cc(C(=O)N[C@H](C)c3cnc(C(F)(F)F)nc3)c2)s1 [Example 360] | 10 | 455 |  |
| Cc1cnc(-c2cc(OC[C@@H]3COCCN3C)cc(C(=O)N[C@H](C)c3ccc(C(F)(F)F)nc3)c2)s1 [Example 361, 3-{[(3S)-4-methylmorpholin-3-yl]methoxy}-5-(5-methyl-1,3-thiazol-2-yl)-N-{(1R)-1-[6-(trifluoromethyl)pyridin-3-yl]ethyl}benzamide] | 14 | 1250 |  |
| Cc1cnc(-c2cc(OC[C@@H]3COCCN3C)cc(C(=O)N[C@H](C)c3cnc(C(F)(F)F)nc3)c2)s1 [Example 362] | 8 | 1010 |  |
| Cc1cnc(-c2cc(OC[C@H]3COCCN3C)cc(C(=O)N[C@H](C)c3ccc(C(F)(F)F)nc3)c2)s1 [Example 363, 3-{[(3R)-4-methylmorpholin-3-yl]methoxy}-5-(5-methyl-1,3-thiazol-2-yl)-N-{(1R)-1-[6-(trifluoromethyl)pyridin-3-yl]ethyl}benzamide] |  | 717 | 12 |
| Cc1cnc(-c2cc(OCC3CC(F)CN3C)cc(C(=O)N[C@H](C)c3cnc(C(F)(F)F)nc3)c2)s1 (stereo partly drawn) [Example 364, 3-{[4-fluoro-1-methylpyrrolidin-2-yl]methoxy}-5-(5-methyl-1,3-thiazol-2-yl)-N-{(1R)-1-[2-(trifluoromethyl)pyrimidin-5-yl]ethyl}benzamide] | 16 | 943 |  |
| Cc1cnc(-c2cc(OCC3CC(F)CN3C)cc(C(=O)N[C@H](C)c3ccc(C(F)(F)F)nc3)c2)s1 (stereo partly drawn) [Example 365, 3-{[4-fluoro-1-methylpyrrolidin-2-yl]methoxy}-5-(5-methyl-1,3-thiazol-2-yl)-N-{(1R)-1-[6-(trifluoromethyl)pyridin-3-yl]ethyl}benzamide] | 21 | 1050 |  |
| Cc1cnc(-c2cc(OC[C@H]3CN(C)CCO3)cc(C(=O)N[C@H](C)c3ccc(C(F)(F)F)nc3)c2)s1 [Example 366, 3-{[(2R)-4-methylmorpholin-2-yl]methoxyl}-5-(5-methyl-1,3-thiazol-2-yl)-N-{(1R)-1-[6-(trifluoromethyl)pyridin-3-yl]ethyl}benzamide] | 18 | 977 |  |
| C[C@@H](NC(=O)c1cc(OC[C@H]2CN(C)CCO2)cc(-c2ncc(Cl)s2)c1)c1cnc(C(F)(F)F)nc1 [Example 367, 3-(5-chloro-1,3-thiazol-2-yl)-5-{[(2R)-4-methylmorpholin-2-yl]methoxy}-N-{(1R)-1-[2-(trifluoromethyl)pyrimidin-5-yl]ethyl}benzamide] | 13 | 506 |  |
| Cc1cnc(-c2cc(OC[C@@H]3CN(C)CCO3)cc(C(=O)NCc3cnc(C(F)(F)F)nc3)c2)s1 [Example 368, 3-{[(2S)-4-methylmorpholin-2-yl]methoxy}-5-(5-methyl-1,3-thiazol-2-yl)-N-{[2-(trifluoromethyl)pyrimidin-5-yl]methyl}benzamide] | 84 | 1090 |  |
| Cc1cnc(-c2cc(OC[C@H]3CN(C)CCO3)cc(C(=O)N[C@H](C)c3ccc(C(F)F)nc3)c2)s1 [Example 369, N-{(1R)-1-[6-(difluoromethyl)pyridin-3-yl]ethyl}-3-{[(2R)-4-methylmorpholin-2-yl]methoxy}-5-(5-methyl-1,3-thiazol-2-yl)benzamide] | 11 | 328 |  |
| Cc1cnc(-c2cc(OC[C@@H]3CN(C)CCO3)cc(C(=O)N[C@H](C)c3ccc(C(F)(F)F)nc3)c2)s1 [Example 370, 3-{[(2S)-4-methylmorpholin 2-yl]methoxy}-5-(5-methyl-1,3-thiazol-2-yl)-N-{(1R)-1-[6-(trifluoromethyl)pyridin-3-yl]ethyl}benzamide] | 41 | 1010 |  |
| Cc1cnc(-c2cc(OCC3(F)CN(C)C3)cc(C(=O)N[C@H](C)c3cnc(C(F)(F)F)nc3)c2)s1 [Example 371, 3-[(3-fluoro-1-methylazetidin-3-yl}methoxy]-5-(5-methyl-1,3-thiazol-2-yl)-N-{(1R)-1-[2-(trifluoromethyl)pyrimidin-5-yl]ethyl}benzamide] | 24 | 1170 |  |
| Cc1cnc(-c2cc(OC[C@H]3CN(C)CCO3)cc(C(=O)NCc3cnc(C(F)(F)F)nc3)c2)s1 [Example 372, 3-{[(2R)-4-methylmorpholin-2-yl]methoxy}-5-(5-methyl-1,3-thiazol-2-yl)-N-{[2-(trifluoromethyl)pyrimidin-5-yl]methyl}benzamide] | 19 | 1210 |  |
| Cc1cnc(-c2cc(OC[C@H]3CN(C)CCO3)cc(C(=O)N[C@H](C)c3ccc(C(F)(F)F)nn3)c2)s1 [Example 373, 3-{[(2R)-4-methylmorpholin-2-yl]methoxy}-5-(5-methyl-1,3-thiazol-2-yl)-N-{(1R)-1-[6-(trifluoromethyl)pyridazin-3-yl]ethyl}benzamide] | 21 | 2830 |  |
